Results taken from patent EP4737445A1, “NOVEL SATURATED HETEROCYCLE-SUBSTITUTED HETEROARYL-CARBONOHYDRAZONOYL DICYANIDE COMPOUND AND USE THEREOF” (Korea Institute of Science and Technology, priority 2023, dated 2025).

Experiments:
CYP2C19 = molecular target: T1, CYP2C19 (Homo sapiens, UniProt P33261); assay: CYP isoenzyme activity inhibition in human liver microsomes, CYP2C19; assay type: in vitro ADME; conditions: 10 µM compound; human liver microsomes 0.25 mg/mL; relative to control without compound
T1 construct: human liver microsomes (0.25 mg/mL); from tissue; host or cells: human liver microsomes
Experimental: (§1) The CYP isoenzyme activity inhibitory effect by the compounds prepared according to Examples 1 to 46 was confirmed. Specifically, human liver microsomes (0.25 mg/mL), 0.1 M phosphate buffer solution (pH 7.4), a substrate drug cocktail of five drug metabolizing enzymes (Phenacetin 50 µM, Diclofenac 10 µM, S-mephenytoin 100 µM, Dextromethorphan 5 µM, and Midazolam 2.5 µM), and the compounds were added at concentrations of 0 or 10 µM, respectively, and pre-incubated at 37°C for 5 minutes, and then NADPH generation system solution was added and incubated at 37°C for an additional 15 minutes. Thereafter, an acetonitrile solution containing an internal standard (Terfenadine) was added to terminate the reaction, and after centrifugation for 5 minutes (14,000 rpm, 4°C), the supernatant was injected into an LC-MS/MS system to simultaneously analyze the metabolites of the substrate drugs, thereby evaluating the drug metabolizing enzyme inhibitory activity.
(§2) The metabolites of each CYP isoenzyme marker drug generated through the reaction were analyzed using a Shimadzu Nexera XR system and TSQ vantage (Thermo). A Kinetex C18 (2.1 × 100 mm, 2.6 µm, particle size; Phenomenex, USA) was used as the HPLC column, and (A) distilled water containing 0.1% formic acid and (B) acetonitrile containing 0.1% formic acid were used as mobile phases, and a gradient program as shown in Table 6 below was applied.
(§3) The generated metabolites were quantified using MRM (Multiple Reaction Monitoring) quantitative mode, and Xcalibur (version 1.6.1) was used for data analysis. To show the CYP isoenzyme activity inhibitory effect of the novel compounds prepared according to the Examples of the disclosure, the % activity of CYP isoenzymes relative to the control group without compound addition is shown in Table 6 below. Additionally, to confirm the difference in effect according to substituents, Comparative Compounds 1 and 5, which are two compounds that share a similar parent nucleus structure with Compounds 1 to 46 of the disclosure while Cy is substituted with aromatic heteroaryl instead of saturated heterocyclyl, were selected as comparative compounds and their activities are shown together.

CYP2C9 = molecular target: T2, CYP2C9 (Homo sapiens, UniProt P11712); assay: CYP isoenzyme activity inhibition in human liver microsomes, CYP2C9; assay type: in vitro ADME; conditions: 10 µM compound; human liver microsomes 0.25 mg/mL; relative to control without compound
T2 construct: human liver microsomes (0.25 mg/mL); from tissue; host or cells: human liver microsomes
Experimental: as §1, §2, §3

CYP2D6 = molecular target: T3, CYP2D6 (Homo sapiens, UniProt P10635); assay: CYP isoenzyme activity inhibition in human liver microsomes, CYP2D6; assay type: in vitro ADME; conditions: 10 µM compound; human liver microsomes 0.25 mg/mL; relative to control without compound
T3 construct: human liver microsomes (0.25 mg/mL); from tissue; host or cells: human liver microsomes
Experimental: as §1, §2, §3

CYP3A4 = molecular target: T4, CYP3A4 (Homo sapiens, UniProt P08684); assay: CYP isoenzyme activity inhibition in human liver microsomes, CYP3A4; assay type: in vitro ADME; conditions: 10 µM compound; human liver microsomes 0.25 mg/mL; relative to control without compound
T4 construct: human liver microsomes (0.25 mg/mL); from tissue; host or cells: human liver microsomes
Experimental: as §1, §2, §3

CYP1A2 = molecular target: T5, CYP1A2 (Homo sapiens, UniProt P05177); assay: CYP isoenzyme activity inhibition in human liver microsomes, CYP1A2; assay type: in vitro ADME; conditions: 10 µM compound; human liver microsomes 0.25 mg/mL; relative to control without compound
T5 construct: human liver microsomes (0.25 mg/mL); from tissue; host or cells: human liver microsomes
T5 sequence (P05177 1-516): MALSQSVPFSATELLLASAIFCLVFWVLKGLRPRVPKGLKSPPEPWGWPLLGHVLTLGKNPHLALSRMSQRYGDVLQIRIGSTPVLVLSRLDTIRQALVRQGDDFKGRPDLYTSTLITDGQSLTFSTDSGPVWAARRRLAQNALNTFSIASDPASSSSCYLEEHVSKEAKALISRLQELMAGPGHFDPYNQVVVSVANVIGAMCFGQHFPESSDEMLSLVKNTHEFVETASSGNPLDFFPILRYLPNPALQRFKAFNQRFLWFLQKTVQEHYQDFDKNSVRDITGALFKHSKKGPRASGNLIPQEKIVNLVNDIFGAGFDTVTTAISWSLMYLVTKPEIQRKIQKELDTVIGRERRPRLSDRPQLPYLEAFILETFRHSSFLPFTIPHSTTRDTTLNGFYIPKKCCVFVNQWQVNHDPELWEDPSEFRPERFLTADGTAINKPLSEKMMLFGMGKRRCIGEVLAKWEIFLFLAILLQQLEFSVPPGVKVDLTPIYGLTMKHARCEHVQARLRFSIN
Experimental: as §1, §2, §3

Tau-BiFC cells = assay: Cell viability (stained nuclei count) in Tau-BiFC cells; assay type: cell-based; conditions: @10 µM; Tau-BiFC cell line; Forskolin-only group = 100%
Experimental: (§4) To screen for new tau aggregation inhibitors, a Tau-BiFC cell model that facilitates observation of tau oligomer formation in living cells was used. Tau-BiFC cells were dispensed into a 384-well plate, and the next day, the compounds prepared according to Examples 1 to 46 were treated at concentrations of 1, 3, and 10 µM, respectively, together with Forskolin (treatment concentration 30 µM), which is a compound that induces tau aggregation by activating the tau phosphorylation enzyme PKA. After 48 hours, nuclei within cells were stained using Hoechst (treatment concentration 2 µg/mL), and BiFC fluorescence intensity was automatically quantified using Operetta (Perkin Elmer) to count the stained nuclei in each well from the entire plate. The group treated only with Forskolin, which induces tau aggregation, was set as the reference point with 100% tau aggregation state, and the effect was confirmed by the formula "BiFC fluorescence intensity by the compounds synthesized according to the Examples of the disclosure/(fluorescence intensity of the control group treated only with Forskolin that induces tau aggregation - fluorescence intensity of the untreated control group) × 100". In addition, the degree of cytotoxicity induced by the newly synthesized compounds was also calculated using the formula "(number of stained nuclei in the compound-treated group/number of stained nuclei in the Forskolin-treated group) × 100", with the group treated only with Forskolin as the reference point at 100% viability. From the treatment results, substances that inhibit intracellular tau aggregation were identified through screening from a series of candidates based on the criteria of 70% or more tau aggregation inhibition and 100% cell viability at a compound treatment concentration of 10 µM.
(§5) To confirm the tau aggregation inhibitory effect according to the concentration of the compounds screened in Experimental Example 1, the screened compounds were treated to Tau-BiFC cells at concentrations of 0.03, 0.1, 0.3, 1, 3, 10, and 30 µM, respectively, together with Forskolin (treatment concentration 30 µM), which is a tau aggregation-inducing substance. After 48 hours, cell images were examined to analyze the tau aggregation reaction and degree of cytotoxicity. The IC50 and toxicity of the compounds were analyzed by nonlinear regression analysis using Prism software (GraphPad). The calculated results for representative compounds are shown in Table 3 below: Tau aggregation inhibitory effect and cell viability of novel compounds.

Tau = molecular target: T6, Tau (Homo sapiens, UniProt P10636); assay: Tau aggregation inhibition in Tau-BiFC cell model (Forskolin-induced); assay type: cell-based
T6 construct: BiFC fluorescent-protein fragments (two complementary halves on two tau copies); expressed in transfected cells
Experimental: as §4, §5

[1] = Liver microsomal stability, mouse; assay type: in vitro ADME; conditions: 1 µM compound; 0.5 mg/mL microsomes; NADPH; 30 minutes at 37°C
Experimental: (§6) Liver microsomal stability by the compounds prepared according to Examples 1 to 46 was confirmed. Specifically, four types of liver microsomes (human, dog, rat, and mouse each at 0.5 mg/mL), 0.1 M phosphate buffer solution (pH 7.4), and the compounds at 1 µM concentration were added and pre-incubated at 37°C for 5 minutes, and then NADPH generation system solution was added and incubated at 37°C for an additional 30 minutes. Thereafter, an acetonitrile solution containing an internal standard (chloropropamide) was added to terminate the reaction, and after centrifugation for 5 minutes (14,000 rpm, 4°C), the supernatant was injected into an LC-MS/MS system to analyze the substrate drug, thereby evaluating the metabolic stability of 8 compounds.
(§7) The amount of remaining substrate through the reaction was analyzed using a Shimadzu Nexera XR system and TSQ vantage (Thermo). A Kinetex XB-C18 (2.1 × 100 mm, 2.6 µm, particle size; Phenomenex, USA) was used as the HPLC column, and (A) distilled water containing 0.1% formic acid and (B) acetonitrile containing 0.1% formic acid were used as mobile phases. Analyst software (version 1.6.3) and Xcalibur (version 1.6.1) were used for data analysis. The calculated results are shown in Table 5 below: Liver microsomal stability data of novel compounds from […] (human, rat, and mouse).

[2] = Liver microsomal stability, rat; assay type: in vitro ADME; conditions: 1 µM compound; 0.5 mg/mL microsomes; NADPH; 30 minutes at 37°C
Experimental: as §6, §7

TDP-43 BiFC cells = assay: Cell viability (stained nuclei count) in TDP-43-BiFC cells; assay type: cell-based; conditions: Forskolin-only group = 100%
Experimental: (§8) To screen for new TDP-43 aggregation inhibitors, a TDP-43-BiFC cell model that facilitates observation of TDP-43 aggregate formation in living cells was used. Specifically, TDP-43-BiFC cells were dispensed into a 384-well plate, and the next day, the compounds prepared according to Examples 1 to 46 were treated at concentrations of 3 and 10 µM, respectively, together with Forskolin (treatment concentration 30 µM), which is a compound that induces TDP-43 aggregation by activating the phosphorylation enzyme PKA. After 48 hours, nuclei within cells were stained using Hoechst (treatment concentration 1 µg/mL), and BiFC fluorescence intensity was automatically quantified using Operetta (PerkinElmer) to count the stained nuclei in each well from the entire plate. The group treated only with Forskolin, which induces TDP-43 aggregation, was set as the reference point with 100% TDP-43 aggregation state, and the effect was confirmed by the formula "(BiFC fluorescence intensity by the compounds synthesized according to the Examples of the disclosure - fluorescence intensity of the untreated control group)/(fluorescence intensity of the control group treated only with Forskolin that induces TDP-43 aggregation - fluorescence intensity of the untreated control group) × 100". In addition, the degree of cytotoxicity induced by the newly synthesized compounds was also calculated using the formula "(number of stained nuclei in the compound-treated group/number of stained nuclei in the Forskolin-treated group) × 100", with the group treated only with Forskolin as the reference point at 100% viability. From the treatment results, substances that inhibit intracellular TDP-43 aggregation were identified through screening from a series of candidates based on the criteria of 80% or more TDP-43 aggregation inhibition and 60% cell viability at a compound treatment concentration of 3 µM.
(§9) Furthermore, to confirm the TDP-43 aggregation inhibitory effect according to the concentration of the compounds screened in Experimental Example 3, the screened compounds were treated to […] at concentrations of 0.003, 0.01, 0.03, 0.1, 0.3, 1, 3, and 10 µM, respectively, together with Forskolin (treatment concentration 30 µM), which is a TDP-43 aggregation-inducing substance. After 48 hours, cell images were examined to analyze the TDP-43 aggregation reaction and degree of cytotoxicity. The IC50 and toxicity of the compounds were analyzed by nonlinear regression analysis using Prism software (GraphPad). The calculated results for representative compounds are shown in Table 4 below: TDP-43 protein aggregation inhibitory effect and cell viability of novel compounds.

TDP-43 protein = molecular target: T7, TDP-43 protein (Homo sapiens, UniProt Q13148); assay: TDP-43 aggregation inhibition in TDP-43-BiFC cell model (Forskolin-induced); assay type: cell-based; conditions: read-out: TDP-43 protein aggregation inhibitory effect: Aggregation inhibitory effect (%) (@3 uM)
T7 construct: BiFC fluorescent-protein fragments (two complementary halves); expressed in transfected cells
Experimental: as §8, §9

[3] = Liver microsomal stability, human; assay type: in vitro ADME; conditions: 1 µM compound; 0.5 mg/mL microsomes; NADPH; 30 minutes at 37°C
Experimental: as §6, §7

T3 sequence (P10635 whole entry): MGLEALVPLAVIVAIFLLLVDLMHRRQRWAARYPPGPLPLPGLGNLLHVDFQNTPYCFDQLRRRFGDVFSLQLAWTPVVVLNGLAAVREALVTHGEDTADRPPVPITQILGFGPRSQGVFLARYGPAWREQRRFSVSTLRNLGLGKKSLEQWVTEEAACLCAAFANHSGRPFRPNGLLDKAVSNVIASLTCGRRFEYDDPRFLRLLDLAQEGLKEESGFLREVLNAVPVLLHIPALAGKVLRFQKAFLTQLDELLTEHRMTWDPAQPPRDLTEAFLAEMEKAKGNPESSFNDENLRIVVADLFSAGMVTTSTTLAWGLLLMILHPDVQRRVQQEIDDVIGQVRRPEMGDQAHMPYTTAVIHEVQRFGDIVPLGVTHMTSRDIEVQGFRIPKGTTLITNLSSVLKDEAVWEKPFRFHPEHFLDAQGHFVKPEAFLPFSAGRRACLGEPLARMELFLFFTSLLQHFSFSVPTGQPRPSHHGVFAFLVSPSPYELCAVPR
T7 sequence (Q13148 whole entry, the tested form may be a part): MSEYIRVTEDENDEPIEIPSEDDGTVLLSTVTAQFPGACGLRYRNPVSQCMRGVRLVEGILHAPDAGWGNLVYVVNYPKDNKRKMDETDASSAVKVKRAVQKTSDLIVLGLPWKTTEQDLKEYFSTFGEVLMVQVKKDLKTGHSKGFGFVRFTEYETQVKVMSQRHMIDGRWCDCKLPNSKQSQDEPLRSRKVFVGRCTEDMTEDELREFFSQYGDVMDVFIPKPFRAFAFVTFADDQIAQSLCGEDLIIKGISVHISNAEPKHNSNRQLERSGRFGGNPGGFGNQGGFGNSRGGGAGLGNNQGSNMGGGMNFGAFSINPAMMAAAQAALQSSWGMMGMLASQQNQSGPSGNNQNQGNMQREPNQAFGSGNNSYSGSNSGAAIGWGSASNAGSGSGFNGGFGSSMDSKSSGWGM
T2 sequence (P11712 whole entry): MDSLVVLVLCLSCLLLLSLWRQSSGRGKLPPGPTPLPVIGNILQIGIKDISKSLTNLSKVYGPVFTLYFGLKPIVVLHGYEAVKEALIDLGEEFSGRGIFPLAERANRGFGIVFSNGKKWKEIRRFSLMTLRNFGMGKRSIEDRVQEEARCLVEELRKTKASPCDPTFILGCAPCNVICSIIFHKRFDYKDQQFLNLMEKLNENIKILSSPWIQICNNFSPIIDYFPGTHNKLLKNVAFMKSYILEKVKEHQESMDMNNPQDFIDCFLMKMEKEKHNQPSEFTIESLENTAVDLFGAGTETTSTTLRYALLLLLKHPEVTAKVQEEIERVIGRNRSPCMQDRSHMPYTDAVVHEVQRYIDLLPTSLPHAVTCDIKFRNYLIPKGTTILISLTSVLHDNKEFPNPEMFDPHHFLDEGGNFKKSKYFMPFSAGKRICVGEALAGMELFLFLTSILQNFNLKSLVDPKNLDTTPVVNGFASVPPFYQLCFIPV
T6 sequence (P10636 1-441 isoform P10636-8): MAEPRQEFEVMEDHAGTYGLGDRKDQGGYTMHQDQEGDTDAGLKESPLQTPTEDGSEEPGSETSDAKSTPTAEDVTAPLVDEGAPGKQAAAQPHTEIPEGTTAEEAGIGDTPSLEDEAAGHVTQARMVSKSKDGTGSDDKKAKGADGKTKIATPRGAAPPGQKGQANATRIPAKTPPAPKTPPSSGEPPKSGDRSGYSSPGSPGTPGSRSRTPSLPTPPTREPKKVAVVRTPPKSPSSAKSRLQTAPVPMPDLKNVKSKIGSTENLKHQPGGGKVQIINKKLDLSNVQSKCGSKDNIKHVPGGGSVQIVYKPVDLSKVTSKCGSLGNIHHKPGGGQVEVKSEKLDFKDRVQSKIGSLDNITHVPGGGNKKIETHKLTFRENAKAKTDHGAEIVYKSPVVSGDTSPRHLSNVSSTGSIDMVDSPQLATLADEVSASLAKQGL
T4 sequence (P08684 whole entry): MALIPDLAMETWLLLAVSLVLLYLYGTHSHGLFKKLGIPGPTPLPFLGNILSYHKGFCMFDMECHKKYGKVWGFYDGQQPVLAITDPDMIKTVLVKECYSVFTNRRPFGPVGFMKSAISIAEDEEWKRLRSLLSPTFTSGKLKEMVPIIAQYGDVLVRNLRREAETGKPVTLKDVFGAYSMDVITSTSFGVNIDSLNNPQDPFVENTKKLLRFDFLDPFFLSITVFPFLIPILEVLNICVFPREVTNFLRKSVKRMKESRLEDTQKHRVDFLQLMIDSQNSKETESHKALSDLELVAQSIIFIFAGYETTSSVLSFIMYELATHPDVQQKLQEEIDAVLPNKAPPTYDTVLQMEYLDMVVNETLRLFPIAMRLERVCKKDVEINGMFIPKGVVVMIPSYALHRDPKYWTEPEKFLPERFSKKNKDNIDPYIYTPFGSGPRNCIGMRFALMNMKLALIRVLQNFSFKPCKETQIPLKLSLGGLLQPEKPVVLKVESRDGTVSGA
T1 sequence (P33261 whole entry): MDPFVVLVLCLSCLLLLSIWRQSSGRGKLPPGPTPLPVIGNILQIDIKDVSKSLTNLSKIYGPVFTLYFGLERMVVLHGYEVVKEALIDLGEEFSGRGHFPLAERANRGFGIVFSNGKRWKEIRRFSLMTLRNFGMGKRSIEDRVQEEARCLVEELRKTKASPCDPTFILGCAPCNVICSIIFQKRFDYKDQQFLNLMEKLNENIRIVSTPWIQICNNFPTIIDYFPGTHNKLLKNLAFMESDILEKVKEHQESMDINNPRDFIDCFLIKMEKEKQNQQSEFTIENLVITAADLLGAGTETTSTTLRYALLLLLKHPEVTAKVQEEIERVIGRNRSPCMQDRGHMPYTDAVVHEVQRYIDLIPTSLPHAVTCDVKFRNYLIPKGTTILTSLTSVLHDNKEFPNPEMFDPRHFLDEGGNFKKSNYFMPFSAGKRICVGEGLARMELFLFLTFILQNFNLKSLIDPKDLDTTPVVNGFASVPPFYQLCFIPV

Row | SMILES | CYP2C19 (% activity) (CYP2C19) | CYP2C9 (% activity) (CYP2C9) | CYP2D6 (% activity) (CYP2D6) | CYP3A4 (% activity) (CYP3A4) | CYP1A2 (% activity) (CYP1A2) | Cell viability (% @10µM) (Tau-BiFC cells) | IC50 (Tau) | Mouse microsomes (% remaining) [1] | Rat microsomes (% remaining) [2] | Cell viability (%) (@ 3 uM) (TDP-43 BiFC cells) | inhibition at 3 µM (TDP-43 protein) | Human microsomes (% remaining) [3]
1 | N#CC(C#N)=NNc1ccc2nc(N3CCOCC3)[nH]c2c1 [Compound 7, (2-morpholino-1H-benzo[d]imidazol-6-yl)carbonohydrazonoyl dicyanide] | 95.1 % activity | 67.8 % activity | > 100 % activity | 83.1 % activity | 57.6 % activity | 100% | 0.064 µM |  |  |  |  | 
2 | Cc1ccc(-c2nc3ccc(NN=C(C#N)C#N)cc3s2)cn1 [Comparative compound 6, N-(2-(6-methylpyridin-3-yl)benzo[d]thiazol-6-yl) carbonohydrazonoyl dicyanide, reference compound] | 81.2 % activity | 32.0 % activity | 91.8 % activity | 81.7 % activity | 80.2 % activity |  |  | >100 % remaining | 83.9 % remaining | 60.8% | 69.5% | 84.7 % remaining
3 | Cc1nc2ccc(NN=C(C#N)C#N)cc2s1 [Comparative compound 1, N-(2-methylbenzo[d]thiazol-6-yl)carbonohydrazonoyl dicyanide, reference compound] |  |  |  |  |  | 100% | 0.5 µM | 1.2 % remaining | 1.2 % remaining | 79.0% | 72.9% | 37.0 % remaining
